Experiment [1] addresses T1, LATS2 (Homo sapiens, UniProt Q9NRM7).
T1 sequence (Q9NRM7 1-1088): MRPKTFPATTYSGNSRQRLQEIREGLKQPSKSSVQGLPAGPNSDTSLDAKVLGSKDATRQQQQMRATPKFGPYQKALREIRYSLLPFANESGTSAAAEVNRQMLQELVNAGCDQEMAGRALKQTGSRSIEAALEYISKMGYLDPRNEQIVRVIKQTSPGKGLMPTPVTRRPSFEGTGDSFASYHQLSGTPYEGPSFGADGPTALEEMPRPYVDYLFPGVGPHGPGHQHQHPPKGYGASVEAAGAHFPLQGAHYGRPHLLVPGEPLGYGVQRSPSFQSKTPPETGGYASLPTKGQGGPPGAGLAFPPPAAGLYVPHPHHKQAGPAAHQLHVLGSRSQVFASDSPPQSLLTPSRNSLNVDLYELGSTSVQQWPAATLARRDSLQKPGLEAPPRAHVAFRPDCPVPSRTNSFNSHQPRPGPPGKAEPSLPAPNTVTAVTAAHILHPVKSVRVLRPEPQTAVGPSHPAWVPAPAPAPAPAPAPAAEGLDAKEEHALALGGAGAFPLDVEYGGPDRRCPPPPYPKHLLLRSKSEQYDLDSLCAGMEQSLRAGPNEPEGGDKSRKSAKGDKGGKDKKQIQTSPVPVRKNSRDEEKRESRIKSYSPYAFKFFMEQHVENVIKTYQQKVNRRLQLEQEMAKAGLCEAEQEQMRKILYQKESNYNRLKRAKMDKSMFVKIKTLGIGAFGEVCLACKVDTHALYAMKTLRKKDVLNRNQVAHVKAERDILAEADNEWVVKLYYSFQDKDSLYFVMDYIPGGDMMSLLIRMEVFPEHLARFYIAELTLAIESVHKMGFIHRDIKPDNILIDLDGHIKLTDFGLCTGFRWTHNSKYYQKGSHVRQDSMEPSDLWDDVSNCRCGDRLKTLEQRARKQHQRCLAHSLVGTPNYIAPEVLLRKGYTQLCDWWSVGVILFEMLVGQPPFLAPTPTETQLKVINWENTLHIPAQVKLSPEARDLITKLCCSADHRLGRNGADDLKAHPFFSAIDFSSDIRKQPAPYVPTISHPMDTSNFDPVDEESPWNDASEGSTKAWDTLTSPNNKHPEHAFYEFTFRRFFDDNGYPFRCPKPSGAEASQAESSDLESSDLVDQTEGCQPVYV
The experiment is described as follows: RBC HotSpot kinase assay (33P-ATP, P81 filter-binding), LATS2. Format: biochemical. Particulars: biochemical kinase inhibition; read-out: LATS2 IC50. In outline: (§1)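 Kinase in Hepes pH 7.5 buffer with Mg2+, EGTA, Brij35, BSA, vanadate, DTT and 1% DMSO, plus required cofactors and substrate, was preincubated 20 min at room temperature with compound. Reaction was started with 33P-ATP and run 2 h, then detected by P81 filter binding. IC50 (nM) came from 10-point singlet curves.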

Experiment [2] deals with AKT (Homo sapiens, UniProt P31749). The experiment is described as follows: RBC HotSpot kinase assay (33P-ATP, P81 filter-binding), AKT. Particulars: biochemical kinase inhibition; read-out: AKT IC50. The format is biochemical. The method in brief: as §1
AKT, sequence (P31749 whole entry): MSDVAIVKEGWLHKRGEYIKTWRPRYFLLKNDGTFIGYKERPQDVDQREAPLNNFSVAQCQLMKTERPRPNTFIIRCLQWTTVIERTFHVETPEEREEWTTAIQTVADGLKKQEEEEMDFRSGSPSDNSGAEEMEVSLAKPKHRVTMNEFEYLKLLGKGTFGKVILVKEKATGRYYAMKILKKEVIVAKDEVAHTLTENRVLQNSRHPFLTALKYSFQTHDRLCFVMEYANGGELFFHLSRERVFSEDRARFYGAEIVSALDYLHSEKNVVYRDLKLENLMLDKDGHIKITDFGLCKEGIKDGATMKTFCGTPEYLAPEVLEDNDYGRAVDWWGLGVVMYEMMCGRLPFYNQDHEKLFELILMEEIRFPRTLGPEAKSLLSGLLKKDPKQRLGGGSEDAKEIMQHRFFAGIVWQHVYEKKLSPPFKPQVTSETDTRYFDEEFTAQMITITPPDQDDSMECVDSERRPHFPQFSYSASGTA

Each structure is given as a SMILES string.

The IC50 is the concentration at which inhibition is half-maximal. With `Cc1cc(-c2ccnc3[nH]cc(C#N)c23)ccc1[C@@]1(O)[C@H](C)CN(C2CCS(=O)(=O)CC2)C[C@@H]1C` [Compound 2003, 4-(4-((3S,4s,5R)-1-(1,1-dioxidotetrahydro-2H-thiopyran-4-yl)-4-hydroxy-3,5-dimethylpiperidin-4-yl)-3-methylphenyl)-1H-pyrrolo[2,3-b]pyridine-3-carbonitrile], the IC50 in experiment [1] turned out to be 2.6 nM; in experiment [2], 12.1 nM.

The values above are taken from patent US20250361230A1, “LATS Inhibitors and Uses Thereof” (The USA, as Represented by the Secretary, Dept. of Heath …, priority 2022, published 2025).
